Laboratory results published in the supplement of paper PMC10307832.

How the values were obtained:
Assay in all cases: relative viability (nuclei count vs DMSO), 5 days (fraction); higher = more cells survive
Alisertib + Trametinib = compound: COc1cc(Nc2ncc3c(n2)-c2ccc(Cl)cc2C(c2c(F)cccc2OC)=NC3)ccc1C(=O)O [Alisertib] + CC(=O)Nc1cccc(-n2c(=O)n(C3CC3)c(=O)c3c(Nc4ccc(I)cc4F)n(C)c(=O)c(C)c32)c1 [Trametinib] (partner 0.02 µM)
Outline: (§1)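 Lung cancer cell lines in 1536-well plates were dosed by pin tool the day after seeding, either with one drug alone or with a fixed anchor-drug dose plus five library-drug doses (not always all listed) in √10 steps. After 5 days, cells were fixed and their nuclei stained in one step (final 0.05% Triton X-100, 1% formaldehyde, 1 ug/ml Hoechst), then counted on 4× images. Relative viability is the nuclei count in treated wells divided by that in vehicle wells. Values are medians of duplicate plates.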

Alisertib + OSI-027 = compound: COc1cc(Nc2ncc3c(n2)-c2ccc(Cl)cc2C(c2c(F)cccc2OC)=NC3)ccc1C(=O)O [Alisertib] + COc1cccc2cc(-c3nc([C@H]4CC[C@H](C(=O)O)CC4)n4ncnc(N)c34)[nH]c12 [OSI-027] (partner 0.5 µM)
Outline: as §1

Alisertib + Lapatinib = compound: COc1cc(Nc2ncc3c(n2)-c2ccc(Cl)cc2C(c2c(F)cccc2OC)=NC3)ccc1C(=O)O [Alisertib] + CS(=O)(=O)CCNCc1ccc(-c2ccc3ncnc(Nc4ccc(OCc5cccc(F)c5)c(Cl)c4)c3c2)o1 [Lapatinib] (partner 2 µM)
Outline: as §1

Alisertib + Linsitinib = compound: COc1cc(Nc2ncc3c(n2)-c2ccc(Cl)cc2C(c2c(F)cccc2OC)=NC3)ccc1C(=O)O [Alisertib] + C[C@]1(O)C[C@@H](c2nc(-c3ccc4ccc(-c5ccccc5)nc4c3)c3c(N)nccn32)C1 [Linsitinib] (partner 1 µM)
Outline: as §1

Cell Line	relative viability (Alisertib + Trametinib; first compound 0.005 µM)	relative viability (Alisertib + Trametinib; first compound 0.01581 µM)	relative viability (Alisertib + Trametinib; first compound 0.05 µM)	relative viability (Alisertib + Trametinib; first compound 0.1581 µM)	relative viability (Alisertib + Trametinib; first compound 0.5 µM)	relative viability (Alisertib + OSI-027; first compound 0.005 µM)	relative viability (Alisertib + OSI-027; first compound 0.01581 µM)	relative viability (Alisertib + OSI-027; first compound 0.05 µM)	relative viability (Alisertib + OSI-027; first compound 0.1581 µM)	relative viability (Alisertib + OSI-027; first compound 0.5 µM)	relative viability (Alisertib + Lapatinib; first compound 0.005 µM)	relative viability (Alisertib + Lapatinib; first compound 0.01581 µM)	relative viability (Alisertib + Lapatinib; first compound 0.05 µM)	relative viability (Alisertib + Lapatinib; first compound 0.1581 µM)	relative viability (Alisertib + Lapatinib; first compound 0.5 µM)	relative viability (Alisertib + Linsitinib; first compound 0.005 µM)	relative viability (Alisertib + Linsitinib; first compound 0.01581 µM)	relative viability (Alisertib + Linsitinib; first compound 0.05 µM)	relative viability (Alisertib + Linsitinib; first compound 0.1581 µM)	relative viability (Alisertib + Linsitinib; first compound 0.5 µM)
LXF-289	0.586	0.628	0.265	0.192	0.152	0.637	0.656	0.461	0.123	0.0861	0.743	0.654	0.666	0.168	0.166	0.843	0.814	0.21	0.194	0.116
NCI-H23	0.318	0.222	0.199	0.169	0.148	0.518	0.377	0.287	0.17	0.144	1.01	0.427	0.27	0.176	0.171	0.621	0.545	0.228	0.191	0.155
NCI-H322M	0.456	0.495	0.403	0.472	0.381	0.568	0.517	0.466	0.326	0.351	0.564	0.616	0.548	0.296	0.315	0.895	0.883	0.435	0.459	0.356
NCI-H358	0.123	0.138	0.0961	0.0877	0.0818	0.716	0.507	0.144	0.0797	0.0701	0.389	0.434	0.211	0.177	0.161	0.735	0.486	0.202	0.159	0.14
NCI-H460	0.102	0.147	0.0441	0.0212	0.0263	0.618	0.578	0.218	0.0256	0.0214	0.977	0.8	0.29	0.0226	0.0161	0.786	0.54	0.162	0.027	0.0144
NCI-H520	0.499	0.429	0.35	0.232	0.213	0.253	0.221	0.204	0.18	0.182	0.76	0.449	0.276	0.258	0.242	0.805	0.667	0.423	0.308	0.22
NCI-H596	0.816	0.787	0.776	0.542	0.327	0.606	0.665	0.788	0.727	0.26	–	1	1.16	0.63	0.433	–	1.02	0.969	0.967	0.404
NCI-H647	0.358	0.493	0.228	0.159	0.113	0.662	0.487	0.227	0.116	0.102	0.801	0.62	0.275	0.085	0.058	1.15	0.883	0.373	0.287	0.0691
NCI-H650	0.829	0.684	0.44	0.229	0.208	0.396	0.459	0.239	0.203	0.159	0.767	0.558	0.266	0.301	0.208	0.614	0.727	0.437	0.217	0.188
NCI-H661	0.514	0.547	0.442	0.341	0.338	0.667	0.557	0.438	0.282	0.285	0.519	0.439	0.323	0.342	0.279	0.635	0.389	0.304	0.323	0.282
NCI-H727	0.308	0.392	0.355	0.341	0.353	0.573	0.466	0.421	0.482	0.374	0.75	0.68	0.497	0.384	0.314	0.415	0.366	0.216	0.242	0.194
NCI-H838	0.432	0.49	0.269	0.146	0.129	0.334	0.397	0.311	0.16	0.119	0.827	0.673	0.391	0.257	0.164	0.962	0.845	0.573	0.278	0.202
NCI-H1355	0.39	0.411	0.355	0.187	0.153	0.346	0.367	0.356	0.154	0.173	0.914	0.837	0.671	0.258	0.184	0.791	0.8	0.394	0.22	0.154
NCI-H1395	1.04	0.922	0.85	0.481	0.38	0.521	0.605	0.527	0.415	0.356	0.865	0.843	0.795	0.596	0.391	1.18	1.02	0.716	0.509	0.488
NCI-H1437	0.391	0.489	0.279	0.21	0.179	0.722	0.699	0.394	0.219	0.154	0.729	0.576	0.45	0.218	0.13	0.951	0.775	0.365	0.15	0.104
NCI-H1651	0.799	0.654	0.52	0.258	0.154	0.621	0.609	0.417	0.288	0.203	0.716	0.589	0.434	0.192	0.193	0.843	0.774	0.451	0.217	0.22
